According to patent US8324274B2, “Drug delivery system for administration of a water soluble, cationic and amphiphilic pharmaceutically active substance” (Ardenia Invesments, Ltd., priority 2007, dated 2012):
Structures can show the parent of a compound that is named as a salt. Where two headings read alike, the source gives them in different places.

Tests used:
[1] = tested on: Human Ovary Adenocarcinoma SKOV-3 Cell Line; test: Cytotoxicity (cell growth inhibition, trypan blue exclusion count) in SKOV-3 cultures; settings: for docetaxel-doxorubicin mixtures based on the sum of amounts of cytostatica
Procedure: MDA-MB-231 cells were propagated in MEM culture medium with 2 mM L-glutamine, 10% fetal bovine serum (FBS) and antibiotics. SKOV-3 cells were cultured in McCoy's 5A culture medium, supplemented with 1.5 mM L-glutamine, 10% FBS and antibiotics. […] Cell propagation of all lines was carried out in BD Falcon™ 25 or 75 cm^2 cultivation flasks (Becton Dickinson Labware). A549 cells were cultured in Ham's F-12 culture medium with 1 mM L-glutamine, 10% FBS and antibiotics. Cell propagation of all lines was carried out in BD Falcon™ 25 or 75 cm^2 cultivation flasks.
These plates were seeded by cells at 8×10^3 cells/well for MDA-MB-231, at 10×10^3 cells/well for SKOV-3 or at 6×10^3 cells/well for A549 in a volume of 200 μl/well. Both flasks and cultivation plates were incubated for cell growth at 37° C. in a humidified atmosphere of 95% air and 5% CO2.
On day 1 after cell seeding 4 μL solutions of the formulations to be tested with different concentrations in appropriate solvents were added to wells with cultures (dose—response experiments). […] The cells were incubated within 2-4 consecutive days.
EF was calculated versus ADRIAMYCIN®. IC50 for the docetaxel-doxorubicin mixtures is based on the sum of amounts of cytostatica.
(§1) IC50 were based on concentration of doxorubicin. Enhancement factors were calculated versus doxorubicin.

[2] = tested on: Human Breast Adenocarcinoma MDA-MB-231 Cell Line; test: cells
Procedure: (§2) For evaluation of cytotoxicity in vitro cells of different human tumour cell lines were purchased from American Type Culture Collection (Rockville, Md., USA): Human Breast Adenocarcinoma Cell Line MDA-MB-231 (ATCC-HTB-26, Lot 3576799), Human Ovary Adenocarcinoma Cell Line SKOV-3 (ATCC-HTB-77, Lot 3038337) and Human Lung Non-Small Cancer Cell Line A549 (ATCC-CCL-185, Lot 3244171). MDA-MB-231 cells were propagated in MEM culture medium with 2 mM L-glutamine, 10% fetal bovine serum (FBS) and antibiotics. SKOV-3 cells were cultured in McCoy's 5A culture medium, supplemented with 1.5 mM L-glutamine, 10% FBS and antibiotics. All media and supplements were purchased from Sigma-Aldrich Co. (St. Louis, Mi., USA). […]
(§3) The cell cultures in the cultivation plates were allowed to adhere for 24 hour of incubation. […] At the end of the incubation period adherent cells were detached by trypsinization and the number of viable cells was counted using trypan blue exclusion test and a hemocytometer. […] The results were expressed as mean cell number±SE and the differences between control and test series evaluated by means of Student's t-test. The drug cytotoxicity was evaluated based on the extent of cell growth inhibition.
as §1

[3] = tested on: Human Lung Non-Small Cancer Cell Line A549; test: Cytotoxicity (cell growth inhibition, trypan blue exclusion count) in A549 cultures; settings: based on concentration of doxorubicin
Procedure: as §2, §3, §1

[4] = SK-OV-3, 72 h, SKOV-3, day 3, mean ± SE, read-out: IC50 day 3
[5] = SK-OV-3, 96 h, SKOV-3, day 4, mean ± SE, read-out: IC50 day 4

| IC50 ([2]; MDA-MB-231, 72 h, read-out: IC50 day 3) [nM] | IC50 ([2]; MDA-MB-231, 96 h, read-out: IC50 day 4) [nM] | SMILES | IC50 [1, 4] [nM] | IC50 [1, 5] [nM] | IC50 ([3]; 72 h, A549, day 3, mean ± SE, read-out: IC50 day 3) [nM] | IC50 ([3]; 96 h, A549, day 4, mean ± SE, read-out: IC50 day 4) [nM] |
| --- | --- | --- | --- | --- | --- | --- |
| 190 | 51 | COc1cccc2c1C(=O)c1c(O)c3c(c(O)c1C2=O)C[C@@](O)(C(=O)CO)C[C@@H]3O[C@H]1C[C@H](N)[C@H](O)[C@H](C)O1 [ADRIAMYCIN ®, doxorubicin hydrochloride] | 85 | 48 | 12 | 27 |
|  |  | CC(=O)O[C@@]12CO[C@@H]1C[C@H](O)[C@@]1(C)C(=O)[C@H](O)C3=C(C)[C@@H](OC(=O)[C@H](O)[C@@H](NC(=O)OC(C)(C)C)c4ccccc4)C[C@@](O)([C@@H](OC(=O)c4ccccc4)[C@H]21)C3(C)C [Docetaxel, docetaxel] | 90.7 | 28.5 |  |  |
